Data from patent publication US10100097B2, “GIP-GLP-1 dual agonist compounds and methods” (Zealand Pharma A/S, priority 2012, dated 2018).
Numbered stars: 1 amine (or outer) side, 2 acyl side, 3 side chain; on linkers, the order of the positions; unused ones are H or OH. Square brackets hold non-standard residues; d marks the D form. Side chains are listed from the residue outwards. Peptide text beside a SMILES is read from it. * marks the point of attachment. γGlu = O=C(O)[C@H](CCC(=O)[*:2])N[*:1]; 1Nal = N[C@@H](Cc1cccc2ccccc12)C(=O)O; Palmitoyl = CCCCCCCCCCCCCCCC(=O)*; Aib = CC(C)(N)C(=O)O

Molecular target: T1, human GLP-1 R (Homo sapiens, UniProt P43220)
T1 construct: expressed in transfected cells
Experiment: Human GLP-1 receptor (GLP-1 R) activity assay, cAMP induction (AlphaScreen cAMP kit)
Format: cell-based
Conditions: HEK293 cells expressing the human GLP-1 R, 15 min at 37° C., average values of multiple determinations, read-out: GLP1 R (EC50 in nM)
Procedure: Human GIP Receptor (GIP R) and GLP-1 Receptor (GLP-1 R) Activity Assay
In vitro effects of peptide conjugates of the invention were assessed by measuring the induction of cAMP following stimulation of the respective receptor by GIP, GLP1 or analogues of these, as outlined in the invention, using the AlphaSceen® cAMP kit from Perkin-Elmer according to instructions. Briefly. HEK293 cells expressing the human GIP R or GLP-1 R (stable cell lines generated through transfection of the cDNA for human GIP R or GLP-1 and selection of stable clones) were seeded at 30,000 cells/well in 96-well microtiter plates coated with 0.01% poly-L-lysine, and grown for 1 day in culture in 200 μl growth medium (DMEM, 10% FCS, Penicillin (100 IU/ml), Streptomycin (100 μg/ml)). On the day of analysis, growth medium was removed and the cells were washed once with […] Tyrode's buffer (Tyrode's Salts (9.6 g/1), 10 mM HEPES, pH 7.4). […] The Assay buffer was removed and cells are lysed in 80 μl Lysis buffer (0.1% w/v BSA, 5 mM HEPES, 0.3% v/v Tween-20) per well. From each well 10 μl lysed cells was transferred to a 384-well plate and mixed with 15 μl bead-mix (1 Unit/15 μl anti-cAMP Acceptor Beads, 1 Unit/15 μl Donor Beads, and 1 Unit/15 μl Biotinylated cAMP in Assay Buffer). The plates were mixed and incubated in the dark for an hour at room temperature before measuring using an Envision™ plate reader (Perkin-Elmer).

T1 sequence (P43220 24-463): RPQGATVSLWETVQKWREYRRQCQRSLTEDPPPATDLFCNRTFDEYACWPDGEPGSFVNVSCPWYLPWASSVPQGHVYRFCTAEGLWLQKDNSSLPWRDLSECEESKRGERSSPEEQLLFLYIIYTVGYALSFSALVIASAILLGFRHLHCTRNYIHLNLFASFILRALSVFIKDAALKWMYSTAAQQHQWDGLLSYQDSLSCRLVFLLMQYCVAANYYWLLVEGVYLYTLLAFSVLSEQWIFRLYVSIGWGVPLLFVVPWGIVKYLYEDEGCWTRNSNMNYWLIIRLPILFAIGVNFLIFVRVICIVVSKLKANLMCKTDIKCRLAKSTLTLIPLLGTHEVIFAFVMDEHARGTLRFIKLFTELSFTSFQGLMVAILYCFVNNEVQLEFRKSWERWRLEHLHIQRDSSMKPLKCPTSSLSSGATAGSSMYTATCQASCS

Compound	EC50
CC[C@H](C)[C@H](NC(=O)[C@H](CO)NC(=O)[C@H](Cc1ccc(O)cc1)NC(=O)[C@H](CC(=O)O)NC(=O)[C@H](CO)NC(=O)[C@@H](NC(=O)[C@H](Cc1ccccc1)NC(=O)[C@@H](NC(=O)CNC(=O)[C@H](CCC(=O)O)NC(=O)C(C)(C)NC(=O)[C@@H](N)Cc1ccc(O)cc1)[C@@H](C)O)[C@@H](C)O)C(=O)N[C@@H](Cc1ccc(O)cc1)C(=O)N[C@@H](CC(C)C)C(=O)N[C@@H](CC(=O)O)C(=O)N[C@@H](CCCCN)C(=O)N[C@@H](CCCCN)C(=O)N[C@@H](C)C(=O)N[C@@H](CCC(N)=O)C(=O)N[C@@H](CCCNC(=N)N)C(=O)N[C@@H](C)C(=O)N[C@@H](Cc1ccccc1)C(=O)N[C@H](C(=O)N[C@@H](CC(N)=O)C(=O)N[C@@H](Cc1c[nH]c2ccccc12)C(=O)N[C@@H](CC(C)C)C(=O)N[C@@H](CC(C)C)C(=O)N[C@@H](C)C(=O)NC(C)(C)C(=O)N[C@@H](CCCCN)C(=O)N[C@@H](Cc1ccc(O)cc1)C(=O)NCC(=O)N[C@@H](Cc1cccc2ccccc12)C(=O)N[C@@H](CC(C)C)C(=O)N[C@@H](CC(=O)O)C(=O)N[C@@H](Cc1ccccc1)C(N)=O)C(C)C [Compound 25] (H-Y[Aib]EGTFTSDYSIYLDKKAQRAFVNWLLA[Aib]KYG[1Nal]LDF-NH2)	0.041 nM
CCCCCCCCCCCCCCCC(=O)N[C@@H](CCC(=O)NCCCC[C@H](NC(=O)[C@H](CCC(=O)O)NC(=O)[C@H](CC(=O)O)NC(=O)[C@H](CC(C)C)NC(=O)[C@H](Cc1ccc(O)cc1)NC(=O)[C@@H](NC(=O)[C@H](CO)NC(=O)[C@H](Cc1ccc(O)cc1)NC(=O)[C@H](CC(=O)O)NC(=O)[C@H](CO)NC(=O)[C@@H](NC(=O)[C@H](Cc1ccccc1)NC(=O)[C@@H](NC(=O)CNC(=O)[C@H](CCC(=O)O)NC(=O)C(C)(C)NC(=O)[C@@H](N)Cc1ccc(O)cc1)[C@@H](C)O)[C@@H](C)O)[C@@H](C)CC)C(=O)N[C@@H](C)C(=O)N[C@@H](C)C(=O)N[C@@H](CCCCN)C(=O)N[C@@H](CCC(=O)O)C(=O)N[C@@H](Cc1ccccc1)C(=O)N[C@H](C(=O)N[C@@H](CCC(=O)O)C(=O)N[C@@H](Cc1c[nH]c2ccccc12)C(=O)N[C@@H](CC(C)C)C(=O)N[C@@H](CCC(=O)O)C(=O)N[C@@H](CO)C(=O)N[C@@H](C)C(N)=O)[C@@H](C)CC)C(=O)O [Compound 34] (H-Y[Aib]EGTFTSDYSIYLDEK([γGlu-Palmitoyl])AAKEFIEWLESA-NH2)	0.031 nM
CCCCCCCCCCCCCCCC(=O)N[C@@H](CCC(=O)NCCCC[C@H](NC(=O)[C@H](CCCCN)NC(=O)[C@H](CC(=O)O)NC(=O)[C@H](CC(C)C)NC(=O)[C@H](Cc1ccc(O)cc1)NC(=O)[C@@H](NC(=O)[C@H](CO)NC(=O)[C@H](Cc1ccc(O)cc1)NC(=O)[C@H](CC(=O)O)NC(=O)[C@H](CO)NC(=O)[C@@H](NC(=O)[C@H](Cc1ccccc1)NC(=O)[C@@H](NC(=O)CNC(=O)[C@H](CCC(=O)O)NC(=O)C(C)(C)NC(=O)[C@@H](N)Cc1ccc(O)cc1)[C@@H](C)O)[C@@H](C)O)[C@@H](C)CC)C(=O)N[C@@H](C)C(=O)N[C@@H](CCC(N)=O)C(=O)N[C@@H](CCCNC(=N)N)C(=O)N[C@@H](C)C(=O)N[C@@H](Cc1ccccc1)C(=O)N[C@H](C(=O)N[C@@H](CC(N)=O)C(=O)N[C@@H](Cc1c[nH]c2ccccc12)C(=O)N[C@@H](CC(C)C)C(=O)N[C@@H](CC(C)C)C(=O)N[C@@H](C)C(=O)NC(C)(C)C(=O)N[C@@H](CCCCN)C(=O)N1CCC[C@H]1C(=O)N[C@@H](CO)C(=O)N[C@@H](CO)C(=O)NCC(=O)N[C@@H](C)C(=O)N1CCC[C@H]1C(=O)N1CCC[C@H]1C(=O)N1CCC[C@H]1C(=O)N[C@@H](CO)C(N)=O)C(C)C)C(=O)O [Compound 35]	0.022 nM
CC[C@H](C)[C@H](NC(=O)[C@H](CO)NC(=O)[C@H](Cc1ccc(O)cc1)NC(=O)[C@H](CC(=O)O)NC(=O)[C@H](CO)NC(=O)[C@@H](NC(=O)[C@H](Cc1ccccc1)NC(=O)[C@@H](NC(=O)CNC(=O)[C@H](CCC(=O)O)NC(=O)C(C)(C)NC(=O)[C@@H](N)Cc1ccc(O)cc1)[C@@H](C)O)[C@@H](C)O)C(=O)N[C@@H](Cc1ccc(O)cc1)C(=O)N[C@@H](CC(C)C)C(=O)N[C@@H](CCC(=O)O)C(=O)N[C@@H](CCCCN)C(=O)N[C@@H](CCCCN)C(=O)N[C@@H](C)C(=O)N[C@@H](C)C(=O)N[C@@H](CCCCN)C(=O)N[C@@H](CC(=O)O)C(=O)N[C@@H](Cc1ccccc1)C(=O)N[C@H](C(=O)N[C@@H](CCC(=O)O)C(=O)N[C@@H](Cc1c[nH]c2ccccc12)C(=O)N[C@@H](CC(C)C)C(=O)N[C@@H](CC(C)C)C(=O)N[C@@H](CO)C(=O)N[C@@H](C)C(N)=O)C(C)C [Compound 37] (H-Y[Aib]EGTFTSDYSIYLEKKAAKDFVEWLLSA-NH2)	0.018 nM
CC[C@H](C)[C@H](NC(=O)[C@H](CO)NC(=O)[C@H](Cc1ccc(O)cc1)NC(=O)[C@H](CC(=O)O)NC(=O)[C@H](CO)NC(=O)[C@@H](NC(=O)[C@H](Cc1ccccc1)NC(=O)[C@@H](NC(=O)CNC(=O)[C@H](CCC(=O)O)NC(=O)C(C)(C)NC(=O)[C@@H](N)Cc1ccc(O)cc1)[C@@H](C)O)[C@@H](C)O)C(=O)N[C@@H](Cc1ccc(O)cc1)C(=O)N[C@@H](CC(C)C)C(=O)N[C@@H](CCC(=O)O)C(=O)N[C@@H](CCCCN)C(=O)N[C@@H](CCCCN)C(=O)N[C@@H](C)C(=O)N[C@@H](CCC(N)=O)C(=O)N[C@@H](CCCCN)C(=O)N[C@@H](CCC(=O)O)C(=O)N[C@@H](Cc1ccccc1)C(=O)N[C@H](C(=O)N[C@@H](CCC(=O)O)C(=O)N[C@@H](Cc1c[nH]c2ccccc12)C(=O)N[C@@H](CC(C)C)C(=O)N[C@@H](CC(C)C)C(=O)N[C@@H](CO)C(=O)N[C@@H](C)C(N)=O)C(C)C [Compound 39] (H-Y[Aib]EGTFTSDYSIYLEKKAQKEFVEWLLSA-NH2)	0.011 nM
CC[C@H](C)[C@H](NC(=O)[C@H](CO)NC(=O)[C@H](Cc1ccc(O)cc1)NC(=O)[C@H](CC(=O)O)NC(=O)[C@H](CO)NC(=O)[C@@H](NC(=O)[C@H](Cc1ccccc1)NC(=O)[C@@H](NC(=O)CNC(=O)[C@H](CCC(=O)O)NC(=O)C(C)(C)NC(=O)[C@@H](N)Cc1ccc(O)cc1)[C@@H](C)O)[C@@H](C)O)C(=O)N[C@@H](Cc1ccc(O)cc1)C(=O)N[C@@H](CC(C)C)C(=O)N[C@@H](CC(=O)O)C(=O)N[C@@H](CCC(=O)O)C(=O)N[C@@H](CCCCN)C(=O)N[C@@H](C)C(=O)N[C@@H](C)C(=O)N[C@@H](CCCCN)C(=O)N[C@@H](CC(=O)O)C(=O)N[C@@H](Cc1ccccc1)C(=O)N[C@H](C(=O)N[C@@H](CCC(=O)O)C(=O)N[C@@H](Cc1c[nH]c2ccccc12)C(=O)N[C@@H](CC(C)C)C(=O)N[C@@H](CC(C)C)C(=O)N[C@@H](CO)C(=O)N[C@@H](C)C(N)=O)C(C)C [Compound 40] (H-Y[Aib]EGTFTSDYSIYLDEKAAKDFVEWLLSA-NH2)	0.022 nM
CC[C@H](C)[C@H](NC(=O)[C@H](CO)NC(=O)[C@H](Cc1ccc(O)cc1)NC(=O)[C@H](CC(=O)O)NC(=O)[C@H](CO)NC(=O)[C@@H](NC(=O)[C@H](Cc1ccccc1)NC(=O)[C@@H](NC(=O)CNC(=O)[C@H](CCC(=O)O)NC(=O)C(C)(C)NC(=O)[C@@H](N)Cc1ccc(O)cc1)[C@@H](C)O)[C@@H](C)O)C(=O)N[C@@H](Cc1ccc(O)cc1)C(=O)N[C@@H](CC(C)C)C(=O)N[C@@H](CCC(=O)O)C(=O)N[C@@H](CO)C(=O)N[C@@H](CCCCN)C(=O)N[C@@H](C)C(=O)N[C@@H](C)C(=O)N[C@@H](Cc1c[nH]cn1)C(=O)N[C@@H](CC(=O)O)C(=O)N[C@@H](Cc1ccccc1)C(=O)N[C@H](C(=O)N[C@@H](CCC(=O)O)C(=O)N[C@@H](Cc1c[nH]c2ccccc12)C(=O)N[C@@H](CC(C)C)C(=O)N[C@@H](CC(C)C)C(=O)N[C@@H](CO)C(=O)N[C@@H](C)C(N)=O)C(C)C [Compound 41] (H-Y[Aib]EGTFTSDYSIYLESKAAHDFVEWLLSA-NH2)	0.011 nM
